US20260266848A1, “COMPOSITIONS AND METHODS FOR DIAGNOSING AND TREATING DYSTONIA” (Duke University, priority 2023, published 2026)
“And” between values parts separate entries of the source, which are not always exact repeats. Identical values can stand only once.

Test system: DYT-TOR1A MEF EVs
Test: Quantitative LC-MS/MS proteomics of EVs from drug-treated DYT-TOR1A MEF cultures (ritonavir, salubrinal)
Type: cell-based, mouse
Settings: 24 h

In the case of `CC(C)c1nc(CN(C)C(=O)N[C@H](C(=O)N[C@@H](Cc2ccccc2)C[C@H](O)[C@H](Cc2ccccc2)NC(=O)OCc2cncs2)C(C)C)cs1` [ritonavir], the “DYT-TOR1A genotype-disrupted EV proteins (n=363) with significant changes in abundance following ritonavir treatment” value (20 μM ritonavir, p≤0.05) is reported as > 60% and 63%, the “DYT-TOR1A genotype-dependent protein disruptions changed by ritonavir in the corrective direction” value (20 μM) is reported as 95% and the “putative DYT biomarkers with ritonavir effects on protein abundance in the corrective direction” value (20 μM, independent of p-value, of 363 proteins) is reported as 344/363. The “DYT EV proteome significantly modified by ritonavir” value (20 μM, uncorrected p<0.05, 1974 proteins) was 29%, the “Acaa1a (ACAA1) EV abundance Log2_FC” value (DYT1+RTV/DYT1, 20 μM) was 0.8675 and the “Ano6 (ANO6) EV abundance Log2_FC” value (DYT1+RTV/DYT1, 20 μM) was 0.08584. The “Ap1b1 (AP1B1) EV abundance Log2_FC” value (DYT1+RTV/DYT1, 20 μM) was 1.328, the “Arl8b (ARL8B) EV abundance Log2_FC” value (DYT1+RTV/DYT1, 20 μM) was 0.4007 and the “Bzw2 (BZW2) EV abundance Log2_FC” value (DYT1+RTV/DYT1, 20 μM) was 0.8082. The “Cryab (CRYAB) EV abundance Log2_FC” value (DYT1+RTV/DYT1, 20 μM) was 0.42, the “DIst (DLST) EV abundance Log2_FC” value (DYT1+RTV/DYT1, 20 μM) was −0.4459 and the “Ehd4 (EHD4) EV abundance Log2_FC” value (DYT1+RTV/DYT1, 20 μM) was 0.07182. For the same molecule, the “Flna (FLNA) EV abundance Log2_FC” value (DYT1+RTV/DYT1, 20 μM) was 0.3721, the “Fscn1 (FSCN1) EV abundance Log2_FC” value (DYT1+RTV/DYT1, 20 μM) was 0.402 and the “Gart (GART) EV abundance Log2_FC” value (DYT1+RTV/DYT1, 20 μM) was 0.677. For the same molecule, the “Hist1h1b (H1-5) EV abundance Log2_FC” value (DYT1+RTV/DYT1, 20 μM) was 0.9834, the “Hnrnpc (HNRNPC) EV abundance Log2_FC” value (DYT1+RTV/DYT1, 20 μM) was −0.1273 and the “Ipo9 (IPO9) EV abundance Log2_FC” value (DYT1+RTV/DYT1, 20 μM) was 1.122. The “Jam3 (JAM3) EV abundance Log2_FC” value (DYT1+RTV/DYT1, 20 μM) was −1.301, the “Lipg (LIPG) EV abundance Log2_FC” value (DYT1+RTV/DYT1, 20 μM) was 1.299 and the “Lrrc59 (LRRC59) EV abundance Log2_FC” value (DYT1+RTV/DYT1, 20 μM) was 0.1624. The “Mapk3 (MAPK3) EV abundance Log2_FC” value (DYT1+RTV/DYT1, 20 μM) was 1.986, the “Mars (MARS1) EV abundance Log2_FC” value (DYT1+RTV/DYT1, 20 μM) was 0.5148 and the “Mrc2 (MRC2) EV abundance Log2_FC” value (DYT1+RTV/DYT1, 20 μM) was −0.09834. The “Myh9 (MYH9) EV abundance Log2_FC” value (DYT1+RTV/DYT1, 20 μM) was −0.00905, the “Ndnf (NDNF) EV abundance Log2_FC” value (DYT1+RTV/DYT1, 20 μM) was 0.4697 and the “Pcmt1 (PCMT1) EV abundance Log2_FC” value (DYT1+RTV/DYT1, 20 μM) was 2.547. The “Pi4ka (PI4KA) EV abundance Log2_FC” value (DYT1+RTV/DYT1, 20 μM) was −0.3588, the “Pitpnb (PITPNB) EV abundance Log2_FC” value (DYT1+RTV/DYT1, 20 μM) was 0.7296 and the “Prpsap2 (PRPSAP2) EV abundance Log2_FC” value (DYT1+RTV/DYT1, 20 μM) was −0.08407. The “Psmc5 (PSMC5) EV abundance Log2_FC” value (DYT1+RTV/DYT1, 20 μM) was 0.4559, the “Psmd12 (PSMD12) EV abundance Log2_FC” value (DYT1+RTV/DYT1, 20 μM) was 1.09 and the “Psme4 (PSME4) EV abundance Log2_FC” value (DYT1+RTV/DYT1, 20 μM) was 1.371. The “Ptma (PTMA) EV abundance Log2_FC” value (DYT1+RTV/DYT1, 20 μM) was −0.8532, the “Rap2b (RAP2B) EV abundance Log2_FC” value (DYT1+RTV/DYT1, 20 μM) was 0.3342 and the “Rbm3 (RBM3) EV abundance Log2_FC” value (DYT1+RTV/DYT1, 20 μM) was −0.1048. For the same molecule, the “Rhoa (RHOA) EV abundance Log2_FC” value (DYT1+RTV/DYT1, 20 μM) was 0.1985, the “Rpl10 (RPL10) EV abundance Log2_FC” value (DYT1+RTV/DYT1, 20 μM) was 0.5214 and the “Rpl13a (RPL13A) EV abundance Log2_FC” value (DYT1+RTV/DYT1, 20 μM) was 0.6732. For the same molecule, the “Rps13 (RPS13) EV abundance Log2_FC” value (DYT1+RTV/DYT1, 20 μM) was 0.02007, the “Sec31a (SEC31A) EV abundance Log2_FC” value (DYT1+RTV/DYT1, 20 μM) was 0.8357 and the “Slc2a1 (SLC2A1) EV abundance Log2_FC” value (DYT1+RTV/DYT1, 20 μM) was −0.03153. For the same molecule, the “Stom (STOM) EV abundance Log2_FC” value (DYT1+RTV/DYT1, 20 μM) was 0.1986, the “Tardbp (TARDBP) EV abundance Log2_FC” value (DYT1+RTV/DYT1, 20 μM) was 0.2272 and the “Tgfb2 (TGFB2) EV abundance Log2_FC” value (DYT1+RTV/DYT1, 20 μM) was −0.7218. The “Tln1 (TLN1) EV abundance Log2_FC” value (DYT1+RTV/DYT1, 20 μM) was 0.1451, the “Tln2 (TLN2) EV abundance Log2_FC” value (DYT1+RTV/DYT1, 20 μM) was 0.6441 and the “Tubb1 (TUBB1) EV abundance Log2_FC” value (DYT1+RTV/DYT1, 20 μM) was −0.05972. The “Usp7 (USP7) EV abundance Log2_FC” value (DYT1+RTV/DYT1, 20 μM) was 1.189, the “Wdr26 (WDR26) EV abundance Log2_FC” value (DYT1+RTV/DYT1, 20 μM) was 1.2 and the “Zyx (ZYX) EV abundance Log2_FC” value (DYT1+RTV/DYT1, 20 μM) was −0.3666. For the same molecule, the “Acaa1a (ACAA1) EV abundance Cohen's d” value (DYT + RTV/DYT, 20 μM) was 1.381, the “Ano6 (ANO6) EV abundance Cohen's d” value (DYT + RTV/DYT, 20 μM) was 0.2001 and the “Ap1b1 (AP1B1) EV abundance Cohen's d” value (DYT + RTV/DYT, 20 μM) was 3.258. The “Arl8b (ARL8B) EV abundance Cohen's d” value (DYT + RTV/DYT, 20 μM) was 0.9032, the “Bzw2 (BZW2) EV abundance Cohen's d” value (DYT + RTV/DYT, 20 μM) was 1.685 and the “Cryab (CRYAB) EV abundance Cohen's d” value (DYT + RTV/DYT, 20 μM) was 0.7088. The “DIst (DLST) EV abundance Cohen's d” value (DYT + RTV/DYT, 20 μM) was −1.437, the “Ehd4 (EHD4) EV abundance Cohen's d” value (DYT + RTV/DYT, 20 μM) was 0.2557 and the “Flna (FLNA) EV abundance Cohen's d” value (DYT + RTV/DYT, 20 μM) was 1.357. For the same molecule, the “Fscn1 (FSCN1) EV abundance Cohen's d” value (DYT + RTV/DYT, 20 μM) was 2.995, the “Gart (GART) EV abundance Cohen's d” value (DYT + RTV/DYT, 20 μM) was 2.137 and the “Hist1h1b (H1-5) EV abundance Cohen's d” value (DYT + RTV/DYT, 20 μM) was 1.182. The “Hnrnpc (HNRNPC) EV abundance Cohen's d” value (DYT + RTV/DYT, 20 μM) was −0.2031, the “Ipo9 (IPO9) EV abundance Cohen's d” value (DYT + RTV/DYT, 20 μM) was 4.135 and the “Jam3 (JAM3) EV abundance Cohen's d” value (DYT + RTV/DYT, 20 μM) was −2.624. The “Lipg (LIPG) EV abundance Cohen's d” value (DYT + RTV/DYT, 20 μM) was 2.834, the “Lrrc59 (LRRC59) EV abundance Cohen's d” value (DYT + RTV/DYT, 20 μM) was 0.8879 and the “Mapk3 (MAPK3) EV abundance Cohen's d” value (DYT + RTV/DYT, 20 μM) was 2.384. The “Mars (MARS1) EV abundance Cohen's d” value (DYT + RTV/DYT, 20 μM) was 2.211, the “Mrc2 (MRC2) EV abundance Cohen's d” value (DYT + RTV/DYT, 20 μM) was −0.4039 and the “Myh9 (MYH9) EV abundance Cohen's d” value (DYT + RTV/DYT, 20 μM) was −0.03876. For the same molecule, the “Ndnf (NDNF) EV abundance Cohen's d” value (DYT + RTV/DYT, 20 μM) was 0.353, the “Pcmt1 (PCMT1) EV abundance Cohen's d” value (DYT + RTV/DYT, 20 μM) was 5.975 and the “Pi4ka (PI4KA) EV abundance Cohen's d” value (DYT + RTV/DYT, 20 μM) was −0.6453. For the same molecule, the “Pitpnb (PITPNB) EV abundance Cohen's d” value (DYT + RTV/DYT, 20 μM) was 2.824, the “Prpsap2 (PRPSAP2) EV abundance Cohen's d” value (DYT + RTV/DYT, 20 μM) was −0.1421 and the “Psmc5 (PSMC5) EV abundance Cohen's d” value (DYT + RTV/DYT, 20 μM) was 2.883. For the same molecule, the “Psmd12 (PSMD12) EV abundance Cohen's d” value (DYT + RTV/DYT, 20 μM) was 10.6, the “Psme4 (PSME4) EV abundance Cohen's d” value (DYT + RTV/DYT, 20 μM) was 3.22 and the “Ptma (PTMA) EV abundance Cohen's d” value (DYT + RTV/DYT, 20 μM) was −2.366. The “Rap2b (RAP2B) EV abundance Cohen's d” value (DYT + RTV/DYT, 20 μM) was 0.7129, the “Rbm3 (RBM3) EV abundance Cohen's d” value (DYT + RTV/DYT, 20 μM) was −0.4328 and the “Rhoa (RHOA) EV abundance Cohen's d” value (DYT + RTV/DYT, 20 μM) was 0.3039. For the same molecule, the “Rpl10 (RPL10) EV abundance Cohen's d” value (DYT + RTV/DYT, 20 μM) was 0.7944, the “Rpl13a (RPL13A) EV abundance Cohen's d” value (DYT + RTV/DYT, 20 μM) was 0.9222 and the “Rps13 (RPS13) EV abundance Cohen's d” value (DYT + RTV/DYT, 20 μM) was 0.06202. For the same molecule, the “Sec31a (SEC31A) EV abundance Cohen's d” value (DYT + RTV/DYT, 20 μM) was 4.402, the “Slc2a1 (SLC2A1) EV abundance Cohen's d” value (DYT + RTV/DYT, 20 μM) was −0.04516 and the “Stom (STOM) EV abundance Cohen's d” value (DYT + RTV/DYT, 20 μM) was 0.4181. For the same molecule, the “Tardbp (TARDBP) EV abundance Cohen's d” value (DYT + RTV/DYT, 20 μM) was 0.6116, the “Tgfb2 (TGFB2) EV abundance Cohen's d” value (DYT + RTV/DYT, 20 μM) was −1.388 and the “Tln1 (TLN1) EV abundance Cohen's d” value (DYT + RTV/DYT, 20 μM) was 1.026. The “Tln2 (TLN2) EV abundance Cohen's d” value (DYT + RTV/DYT, 20 μM) was 1.031, the “Tubb1 (TUBB1) EV abundance Cohen's d” value (DYT + RTV/DYT, 20 μM) was −0.1131 and the “Usp7 (USP7) EV abundance Cohen's d” value (DYT + RTV/DYT, 20 μM) was 7.143. The “Wdr26 (WDR26) EV abundance Cohen's d” value (DYT + RTV/DYT, 20 μM) was 3.714, the “Zyx (ZYX) EV abundance Cohen's d” value (DYT + RTV/DYT, 20 μM) was −0.7038 and the “Pearson r between ritonavir and salubrinal effects on putative DYT-TOR1A biomarker proteins” value (DYT-TOR1A MEF EVs, 20 μM each) was 0.47.
